# Experimental data from paper PMC6540285, “Evaluation of Protein Kinase Inhibitors with PLK4 Cross-Over Potential in a Pre-Clinical Model of Cancer” (International Journal of Molecular Sciences, 2019).
# Experiments:
# [1] = test system: RT and MB cells; experiment: Clonogenic colony formation assay; assay type: cell-based; conditions: 1µM
# Method: All cell lines were seeded at 200 cells per well in six-well plates and incubated overnight. After 24 h, the treatment medium was added and changed once a week. Cells were treated with 0.01, 0.05, 0.1, 0.2, 0.5, 1, 5, and 10 µM of PLK4i and 0.1% DMSO as control. After 14 days, the cells were washed twice with 1x PBS, fixed with formalin, and stained with Cresyl violet (ACROS Organics, Pittsburgh, PA, USA). Colonies were counted using the ImageJ software (www.imagej.nih.gov, accessed on April 21, 2017).
# [2] = molecular target: ADCK3 (Homo sapiens, UniProt Q8NI60); experiment: SelectScreen kinase profiling, LanthaScreen binding; conditions: ADCK3, 10 µM
# Source text: Kinase Technology % Inhibition Avg Kinase Technology % Inhibition Avg
# STK23 (MSSK1) ZLYTE 59 TGFBR1 (ALK5) LanthaScreen 85
# STK24 (MST3) ZLYTE 85 TGFBR2 LanthaScreen 77
# STK25 (YSK1) ZLYTE 45 TLK1 LanthaScreen 4
# STK3 (MST2) ZLYTE 77 TLK2 LanthaScreen 33
# STK32B (YANK2) LanthaScreen 61 TNIK LanthaScreen 15
# STK32C (YANK3) LanthaScreen 62 TNK1 ZLYTE 94
# STK33 LanthaScreen 81 TNK2 (ACK) LanthaScreen 71
# STK38 (NDR) LanthaScreen 85 TTK LanthaScreen 54
# STK38L (NDR2) LanthaScreen 59 TXK ZLYTE 94
# STK39 (STLK3) LanthaScreen 38 TYK2 ZLYTE 99
# STK4 (MST1) ZLYTE 93 TYRO3 (RSE) ZLYTE 92
# SYK ZLYTE 98 ULK1 LanthaScreen 80
# TAOK1 LanthaScreen 82 ULK2 LanthaScreen 56
# TAOK2 (TAO1) ZLYTE 87 ULK3 LanthaScreen 5
# TAOK3 (JIK) LanthaScreen 25 VRK2 LanthaScreen 32
# TBK1 ZLYTE 99 WEE1 LanthaScreen 75
# TEC LanthaScreen -9 WNK1 LanthaScreen 2
# TEK (Tie2) ZLYTE 99 WNK2 LanthaScreen 1
# TEK (TIE2) R849W LanthaScreen -5 WNK3 LanthaScreen 7
# TEK (TIE2) Y897S ZLYTE 80 ZAK LanthaScreen 77
# (§1) TESK1 LanthaScreen 37 ZAP70 ZLYTE 24
# (§2) cleavage (Thermo Fisher Scientific, USA)
# [3] = molecular target: CDK3/cyclin E1 (Homo sapiens, UniProt Q00526); experiment: as above; conditions: CDK3/cyclin E1, 10 µM
# [4] = molecular target: DAPK2 (Homo sapiens, UniProt Q9UIK4); experiment: as above; conditions: DAPK2, 10 µM
# [5] = molecular target: DDR2 T654M (Homo sapiens, UniProt Q16832, T654M); experiment: as above
# [6] = molecular target: FGFR3 K650M (Homo sapiens, UniProt P22607, K650M); experiment: as above
# [7] = molecular target: FLT3 D835Y (Homo sapiens, UniProt P36888, D835Y); experiment: SelectScreen kinase profiling, ZLYTE; assay type: biochemical
# [8] = molecular target: HIPK3 (YAK1) (Homo sapiens, UniProt Q9H422); experiment: SelectScreen kinase profiling, ZLYTE; assay type: biochemical
# Chain of HIPK3 (YAK1) (Q9H422 whole entry): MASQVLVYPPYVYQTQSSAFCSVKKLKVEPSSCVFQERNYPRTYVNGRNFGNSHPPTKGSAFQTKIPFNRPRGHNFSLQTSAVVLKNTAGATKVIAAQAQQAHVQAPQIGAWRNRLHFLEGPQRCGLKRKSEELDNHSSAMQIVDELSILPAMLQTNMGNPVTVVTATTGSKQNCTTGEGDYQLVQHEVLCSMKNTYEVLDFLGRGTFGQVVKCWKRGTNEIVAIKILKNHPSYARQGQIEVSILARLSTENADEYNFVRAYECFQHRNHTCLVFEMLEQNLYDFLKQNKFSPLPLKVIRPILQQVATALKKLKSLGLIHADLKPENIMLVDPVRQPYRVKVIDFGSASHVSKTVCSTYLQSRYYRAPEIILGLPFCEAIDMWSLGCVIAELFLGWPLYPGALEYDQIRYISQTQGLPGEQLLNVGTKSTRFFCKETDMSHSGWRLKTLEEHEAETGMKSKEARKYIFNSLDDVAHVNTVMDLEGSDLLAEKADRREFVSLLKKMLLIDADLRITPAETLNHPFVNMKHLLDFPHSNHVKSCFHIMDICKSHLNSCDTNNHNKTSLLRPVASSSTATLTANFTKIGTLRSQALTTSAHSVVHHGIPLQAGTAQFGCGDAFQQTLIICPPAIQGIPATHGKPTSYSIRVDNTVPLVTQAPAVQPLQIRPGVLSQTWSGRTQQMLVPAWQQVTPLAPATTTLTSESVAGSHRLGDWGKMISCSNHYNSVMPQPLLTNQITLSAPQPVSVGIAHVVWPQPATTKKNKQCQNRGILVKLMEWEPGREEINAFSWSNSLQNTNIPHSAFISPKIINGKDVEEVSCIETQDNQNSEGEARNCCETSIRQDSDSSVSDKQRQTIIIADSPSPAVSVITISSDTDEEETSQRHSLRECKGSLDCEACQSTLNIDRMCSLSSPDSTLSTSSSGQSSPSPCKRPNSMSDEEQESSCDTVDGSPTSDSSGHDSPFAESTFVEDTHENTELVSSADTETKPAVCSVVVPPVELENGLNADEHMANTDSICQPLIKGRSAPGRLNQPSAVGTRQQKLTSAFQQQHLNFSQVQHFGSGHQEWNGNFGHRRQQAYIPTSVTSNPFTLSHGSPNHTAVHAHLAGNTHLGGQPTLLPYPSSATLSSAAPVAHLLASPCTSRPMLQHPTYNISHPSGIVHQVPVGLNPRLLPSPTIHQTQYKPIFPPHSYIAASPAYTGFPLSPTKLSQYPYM
# [9] = molecular target: JAK1 (Homo sapiens, UniProt P23458); experiment: SelectScreen kinase profiling, ZLYTE; assay type: biochemical; conditions: JAK1, 10 µM
# Chain of JAK1 (P23458 whole entry): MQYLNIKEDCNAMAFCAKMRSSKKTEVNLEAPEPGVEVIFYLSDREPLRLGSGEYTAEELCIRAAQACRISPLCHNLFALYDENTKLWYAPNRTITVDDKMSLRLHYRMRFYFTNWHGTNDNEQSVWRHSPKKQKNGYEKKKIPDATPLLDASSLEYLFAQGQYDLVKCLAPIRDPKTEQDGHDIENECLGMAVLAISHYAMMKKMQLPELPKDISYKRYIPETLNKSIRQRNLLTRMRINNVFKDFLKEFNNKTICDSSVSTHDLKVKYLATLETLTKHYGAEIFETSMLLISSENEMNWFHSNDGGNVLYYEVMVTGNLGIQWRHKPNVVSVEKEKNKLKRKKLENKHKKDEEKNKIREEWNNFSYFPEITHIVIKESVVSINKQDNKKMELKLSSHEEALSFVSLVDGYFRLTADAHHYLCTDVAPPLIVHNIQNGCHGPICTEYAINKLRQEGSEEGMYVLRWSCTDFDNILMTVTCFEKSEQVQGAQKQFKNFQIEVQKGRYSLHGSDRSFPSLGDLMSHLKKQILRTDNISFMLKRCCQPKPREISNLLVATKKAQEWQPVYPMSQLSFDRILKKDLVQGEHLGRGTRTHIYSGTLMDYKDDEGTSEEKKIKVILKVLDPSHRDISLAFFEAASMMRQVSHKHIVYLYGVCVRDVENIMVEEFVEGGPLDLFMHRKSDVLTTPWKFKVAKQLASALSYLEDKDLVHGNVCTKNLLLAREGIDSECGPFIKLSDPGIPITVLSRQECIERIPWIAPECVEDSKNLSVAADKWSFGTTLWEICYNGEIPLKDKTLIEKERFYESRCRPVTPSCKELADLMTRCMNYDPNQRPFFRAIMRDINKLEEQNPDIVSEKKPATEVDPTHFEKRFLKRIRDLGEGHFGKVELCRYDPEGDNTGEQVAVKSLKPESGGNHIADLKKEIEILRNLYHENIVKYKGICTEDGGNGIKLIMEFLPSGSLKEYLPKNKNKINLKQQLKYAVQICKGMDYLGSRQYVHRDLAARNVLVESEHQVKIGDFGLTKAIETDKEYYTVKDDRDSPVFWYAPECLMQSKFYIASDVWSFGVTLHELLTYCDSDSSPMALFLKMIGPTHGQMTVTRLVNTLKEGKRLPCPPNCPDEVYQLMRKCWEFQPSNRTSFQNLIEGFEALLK
# [10] = molecular target: KIT Y823D (Homo sapiens, UniProt P10721, Y823D); experiment: SelectScreen kinase profiling, LanthaScreen binding
# [11] = molecular target: MAP2K1 (MEK1) (Homo sapiens, UniProt Q02750); experiment: as above
# [12] = molecular target: MAP2K5 (MEK5) (Homo sapiens, UniProt Q13163); experiment: as above
# [13] = molecular target: MAPK1 (ERK2) (Homo sapiens, UniProt P28482); experiment: SelectScreen kinase profiling, ZLYTE; assay type: biochemical
# Chain of MAPK1 (ERK2) (P28482 whole entry): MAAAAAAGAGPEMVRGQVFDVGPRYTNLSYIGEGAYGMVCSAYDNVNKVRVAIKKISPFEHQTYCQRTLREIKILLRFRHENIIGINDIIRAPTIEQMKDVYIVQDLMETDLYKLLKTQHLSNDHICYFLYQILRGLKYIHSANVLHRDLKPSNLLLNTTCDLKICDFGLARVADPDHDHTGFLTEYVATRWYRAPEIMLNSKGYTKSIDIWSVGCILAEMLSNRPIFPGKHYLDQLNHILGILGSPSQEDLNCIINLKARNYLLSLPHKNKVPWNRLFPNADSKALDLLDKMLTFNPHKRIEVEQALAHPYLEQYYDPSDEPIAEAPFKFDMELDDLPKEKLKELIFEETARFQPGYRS
# [14] = molecular target: MAPK3 (ERK1) (Homo sapiens, UniProt P27361); experiment: SelectScreen kinase profiling, ZLYTE; assay type: biochemical
# Chain of MAPK3 (ERK1) (P27361 whole entry): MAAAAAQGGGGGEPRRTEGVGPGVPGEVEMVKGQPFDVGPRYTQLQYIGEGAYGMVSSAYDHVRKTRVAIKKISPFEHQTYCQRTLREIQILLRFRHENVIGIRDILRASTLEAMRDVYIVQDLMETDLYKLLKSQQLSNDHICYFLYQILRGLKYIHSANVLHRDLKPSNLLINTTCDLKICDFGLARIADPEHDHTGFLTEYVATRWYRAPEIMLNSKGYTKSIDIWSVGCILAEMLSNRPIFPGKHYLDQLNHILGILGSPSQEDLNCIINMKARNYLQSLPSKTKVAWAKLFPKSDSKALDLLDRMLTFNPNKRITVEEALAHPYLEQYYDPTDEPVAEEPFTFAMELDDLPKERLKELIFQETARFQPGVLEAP
# [15] = molecular target: MINK1 (Homo sapiens, UniProt Q8N4C8); experiment: SelectScreen kinase profiling, ZLYTE; assay type: biochemical; conditions: MINK1, 10 µM
# [16] = molecular target: MYLK2 (skMLCK) (Homo sapiens, UniProt Q9H1R3); experiment: SelectScreen kinase profiling, ZLYTE; assay type: biochemical
# [17] = molecular target: MYO3A (MYO3 alpha) (Homo sapiens, UniProt Q8NEV4); experiment: SelectScreen kinase profiling, LanthaScreen binding
# [18] = molecular target: PI4KB (PI4K beta) (Homo sapiens, UniProt Q9UBF8); experiment: SelectScreen kinase profiling, Adapta; assay type: biochemical
# [19] = molecular target: PIK3CA E545K/PIK3R1 (p110 alpha E545K/p85 alpha) (Homo sapiens, UniProt P42336, E545K); experiment: SelectScreen kinase profiling, Adapta; assay type: biochemical; conditions: PIK3CA E545K/PIK3R1, 10 µM
# [20] = molecular target: PRKX (Homo sapiens, UniProt P51817); experiment: SelectScreen kinase profiling, ZLYTE; assay type: biochemical
# [21] = molecular target: ROCK2 (Homo sapiens, UniProt O75116); experiment: SelectScreen kinase profiling, ZLYTE; assay type: biochemical; conditions: ROCK2, 10 µM
# [22] = molecular target: RPS6KA6 (RSK4) (Homo sapiens, UniProt Q9UK32); experiment: SelectScreen kinase profiling, ZLYTE; assay type: biochemical
# Chain of RPS6KA6 (RSK4) (Q9UK32 whole entry): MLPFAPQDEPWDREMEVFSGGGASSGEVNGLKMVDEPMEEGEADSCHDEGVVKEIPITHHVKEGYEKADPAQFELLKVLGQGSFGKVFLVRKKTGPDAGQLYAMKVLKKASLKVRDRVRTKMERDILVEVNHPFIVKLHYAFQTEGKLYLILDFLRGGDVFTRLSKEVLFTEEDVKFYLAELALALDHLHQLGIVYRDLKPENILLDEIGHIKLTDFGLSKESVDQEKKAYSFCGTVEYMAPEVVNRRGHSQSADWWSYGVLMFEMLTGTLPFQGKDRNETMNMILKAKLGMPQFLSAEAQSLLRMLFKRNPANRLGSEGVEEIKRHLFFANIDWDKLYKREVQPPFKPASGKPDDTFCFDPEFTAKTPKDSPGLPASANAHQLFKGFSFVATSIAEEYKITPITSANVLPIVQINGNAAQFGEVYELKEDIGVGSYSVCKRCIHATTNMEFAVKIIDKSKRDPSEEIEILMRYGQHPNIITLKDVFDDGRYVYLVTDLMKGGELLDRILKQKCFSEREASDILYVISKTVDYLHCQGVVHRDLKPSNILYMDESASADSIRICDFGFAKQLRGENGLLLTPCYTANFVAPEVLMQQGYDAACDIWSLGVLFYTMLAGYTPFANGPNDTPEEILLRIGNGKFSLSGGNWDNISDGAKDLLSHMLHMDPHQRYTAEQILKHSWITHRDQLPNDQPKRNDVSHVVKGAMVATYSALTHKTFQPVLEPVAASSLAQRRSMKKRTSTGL
# [23] = molecular target: TESK1 (Homo sapiens, UniProt Q15569); experiment: SelectScreen kinase profiling, LanthaScreen binding; conditions: TESK1, 10 µM
# Source text: Kinase Technology % Inhibition Avg Kinase Technology % Inhibition Avg […]
# as §1, §2
# [24] = molecular target: hERG channel (Homo sapiens, UniProt Q12809); experiment: biochemical
# [25] = molecular target: CYP2D6 (Homo sapiens, UniProt P10635); experiment: SelectScreen P450 Vivid biochemical assay; conditions: 10000nM; substrate EOMCC
# [26] = molecular target: P450 2C8 (Homo sapiens, UniProt P10632); experiment: SelectScreen P450 Vivid biochemical assay; conditions: 10000nM; substrate DBOMF
# Chain of P450 2C8 (P10632 whole entry): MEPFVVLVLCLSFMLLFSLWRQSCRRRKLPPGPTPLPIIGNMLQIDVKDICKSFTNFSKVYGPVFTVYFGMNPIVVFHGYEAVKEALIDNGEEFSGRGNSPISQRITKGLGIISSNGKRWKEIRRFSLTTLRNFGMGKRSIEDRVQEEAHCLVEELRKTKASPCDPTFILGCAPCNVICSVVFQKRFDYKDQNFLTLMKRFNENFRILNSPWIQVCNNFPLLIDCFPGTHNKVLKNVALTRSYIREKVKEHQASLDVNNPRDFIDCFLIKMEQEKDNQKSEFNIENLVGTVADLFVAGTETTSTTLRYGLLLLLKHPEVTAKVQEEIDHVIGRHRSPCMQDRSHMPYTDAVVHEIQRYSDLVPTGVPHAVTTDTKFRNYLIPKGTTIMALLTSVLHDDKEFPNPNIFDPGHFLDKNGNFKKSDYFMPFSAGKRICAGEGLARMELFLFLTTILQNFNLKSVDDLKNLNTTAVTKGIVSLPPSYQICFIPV
# [27] = molecular target: P450 2C9 (Homo sapiens, UniProt P11712); experiment: SelectScreen P450 Vivid biochemical assay; conditions: 10000nM; substrate BOMF
# Chain of P450 2C9 (P11712 whole entry): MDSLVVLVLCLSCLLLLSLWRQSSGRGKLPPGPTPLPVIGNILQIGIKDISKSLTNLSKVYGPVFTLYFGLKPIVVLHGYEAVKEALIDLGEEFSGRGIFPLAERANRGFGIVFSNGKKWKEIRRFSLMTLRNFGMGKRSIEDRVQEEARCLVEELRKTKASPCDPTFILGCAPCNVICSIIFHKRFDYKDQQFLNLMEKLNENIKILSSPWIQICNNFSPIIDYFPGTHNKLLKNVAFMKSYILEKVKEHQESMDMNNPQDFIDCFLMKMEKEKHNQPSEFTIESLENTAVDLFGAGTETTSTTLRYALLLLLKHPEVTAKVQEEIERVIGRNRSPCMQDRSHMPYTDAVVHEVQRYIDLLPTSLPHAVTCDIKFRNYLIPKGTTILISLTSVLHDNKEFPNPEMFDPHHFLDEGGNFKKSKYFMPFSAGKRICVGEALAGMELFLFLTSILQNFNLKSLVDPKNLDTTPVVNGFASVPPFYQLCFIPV
smiles,measurement,setting,value
O=C(c1ccc(/C=C/c2n[nH]c3ccccc23)cc1)N1CCNCC1 [KW-2449],colony formation,[1],complete inhibition of colony formation in all cell lines except the MB cell line DAOY
same,inhibition at 10 µM,[2],-2%
same,inhibition at 10 µM,[3],48%
same,inhibition at 10 µM,[4],64%
same,inhibition at 10 µM,[5],84%
same,inhibition at 10 µM,[6],22%
same,inhibition at 10 µM,[7],100%
same,inhibition at 10 µM,[8],53%
same,inhibition at 10 µM,[9],94%
same,inhibition at 10 µM,[10],61%
same,inhibition at 10 µM,[11],54%
same,inhibition at 10 µM,[12],84%
same,inhibition at 10 µM,[13],45%
same,inhibition at 10 µM,[14],41%
same,inhibition at 10 µM,[15],102%
same,inhibition at 10 µM,[16],100%
same,inhibition at 10 µM,[17],59%
same,inhibition at 10 µM,[18],10%
same,inhibition at 10 µM,[19],-3%
same,inhibition at 10 µM,[20],96%
same,inhibition at 10 µM,[21],83%
same,inhibition at 10 µM,[22],97%
same,inhibition at 10 µM,[23],37%
same,IC50,[24],> 10 µM
same,% Inhibition 2D6 EOMCC,[25],1%
same,% Inhibition 2C8 DBOMF,[26],33%
same,% Inhibition 2C9 BOMF,[27],-2%
